Reference: US12582648B2 (BIOPROJET Pharma, priority 2020, dated 2026)

What was measured:
[1] = target: T1, human dopamine D2 short isoform (Homo sapiens, UniProt P14416); test: Calcium fluxes assay of D2-receptor activation/inhibition (HEK293 cells); assay type: cell-based; details: calcium flux; for EC50: HEK293 cells, human D2 short isoform; for agonist behaviour at D2 receptor: BP1.4979 at concentrations up to 1,000 nM
T1 construct: expressed in transfected cells; host or cells: HEK293 cells
Procedure: Calcium Fluxes Assay of D2-Receptor Activation/Inhibition
HEK293 cells expressing the human dopamine D2 short isoform were used to evaluate the potential agonist property of test compounds. Cells were loaded with Fluo-4-AM solution supplemented with sulfinpyrazone then plated in a 96-well plate and introduced in a FLEX station for fluorescence measurement following calcium transients.
Responses were calculated as the maximum minus the minimum fluorescence counts (Fmax−Fmin).

[2] = target: human dopamine D3 receptor (Homo sapiens, UniProt P35462); test: Mitogenesis assay of D3-receptor activation ([3H]-thymidine incorporation, CHO cells); assay type: cell-based; details: for agonist behaviour (partial / full): human D3 receptor
Procedure: Mitogenesis Assay of D3-Receptor Activation
Chinese hamster ovary (CHO) cells stably expressing the human dopamine D3 receptor were plated overnight in 96-well plates. Cells were then washed with serum-free medium, and incubated 20 h with various concentrations of ligands. Tritiated thymidine was added for a 4 hour-pulse. Then, the cells were detached with trypsin/EDTA, transferred in GF/C multiscreen microplates, rinsed with ice-cold PBS and ethanol and dried. [^3H]-Thymidine incorporation was measured by liquid scintillation in a MicroBeta counter.
Results are expressed as percentage of the maximal [^3H]-thymidine incorporation yielded with the full agonist quinelorane.

[3] = test system: 160 other receptors, channels or enzymes; test: Activity at 160 other receptors, channels or enzymes
[4] = test system: monosynaptic spinal cord reflex; test: Monosynaptic response in the isolated spinal cord of rat pups (rat model of RLS); details: for inhibition of the monosynaptic reflex: reference agonists applied to isolated rat spinal cord
Procedure: RLS is believed to reflect an abnormal sensitivity of spinal stretch reflexes. These reflexes are modulated in an inhibitory fashion by dopamine released in the dorsal horn from a descending dopaminergic projection arising from A11 dopamine cells in the hypothalamus.
Electrophysiological responses i.e. motor action potentials recorded on the ventral root of isolated spinal cord from rat pups following stimulation of the dorsal root were analyzed.

[5] = target: human D2 receptor (Homo sapiens, UniProt P14416); test: Affinity at the human D2 receptor; assay type: binding
[6] = test system: healthy smokers; test: Weight gain during smoking cessation, double blind clinical trial; assay type: in vivo, human; details: for weight increase: after twelve weeks; for weight increase compared to the weight before treatment: twelve further weeks after the end of treatment
[7] = target: T2, human D3 receptor (Homo sapiens, UniProt P35462); test: GTPγ35S binding assay at D3 dopamine receptor (CHO cell membranes); assay type: biochemical; details: GTPγ[35S] assay, dopamine as full agonist reference
T2 construct: expressed in transfected cells
Procedure: Thawed membranes from CHO cells stably expressing human D3 receptor were diluted at a final concentration of 5 μg/180 μL/well in a binding buffer containing HEPES 50 mM, MgCl2 3 mM, NaCl 140 mM, GDP 4 μM, pH=7.4 and distributed in 96 well polystyrene microplate. […] After transfer in a Millipore GF/C HTS® microplate, the filtration of the reactional mix followed by a three time 250 μl wash put an end to the reaction. The filter-bound radioactivity was measured in a liquid scintillation counter Microbeta with 70 μl of scintillation fluid.

[8] = test system: RLS patients; test: Double-blind placebo-controlled clinical trial in restless legs syndrome; assay type: in vivo, human; details: 15 mg twice a day for two weeks
Procedure: Clinical Studies: Efficacy of BP1.4979 in Restless Legs Syndrome (Randomized, Double Blind Parallel Groups Sequential, Placebo Controlled, Clinical Trial)
The double-blind trial was conducted on 29 patients.

T1 sequence (P14416 1-414 isoform P14416-2): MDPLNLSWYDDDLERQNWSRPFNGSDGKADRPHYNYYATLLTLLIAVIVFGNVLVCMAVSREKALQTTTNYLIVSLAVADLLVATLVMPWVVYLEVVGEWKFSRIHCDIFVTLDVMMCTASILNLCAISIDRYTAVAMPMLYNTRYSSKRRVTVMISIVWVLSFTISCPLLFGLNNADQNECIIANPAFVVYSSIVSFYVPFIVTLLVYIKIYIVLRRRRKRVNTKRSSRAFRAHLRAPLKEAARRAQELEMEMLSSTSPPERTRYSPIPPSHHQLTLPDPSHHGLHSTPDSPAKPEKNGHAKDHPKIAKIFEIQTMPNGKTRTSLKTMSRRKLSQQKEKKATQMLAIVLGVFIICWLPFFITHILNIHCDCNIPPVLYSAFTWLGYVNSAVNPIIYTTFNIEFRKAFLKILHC
human dopamine D3 receptor, sequence (P35462 whole entry): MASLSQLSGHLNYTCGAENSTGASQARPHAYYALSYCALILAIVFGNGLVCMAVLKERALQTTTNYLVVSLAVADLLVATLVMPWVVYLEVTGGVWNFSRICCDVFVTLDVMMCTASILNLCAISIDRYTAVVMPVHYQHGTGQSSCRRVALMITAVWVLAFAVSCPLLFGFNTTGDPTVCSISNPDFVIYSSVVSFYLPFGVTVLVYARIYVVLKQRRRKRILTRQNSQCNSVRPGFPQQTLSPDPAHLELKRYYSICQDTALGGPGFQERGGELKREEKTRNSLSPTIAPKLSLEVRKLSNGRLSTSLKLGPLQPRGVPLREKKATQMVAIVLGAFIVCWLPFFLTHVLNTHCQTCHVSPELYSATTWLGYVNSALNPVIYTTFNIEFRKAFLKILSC
human D2 receptor, sequence (P14416 whole entry): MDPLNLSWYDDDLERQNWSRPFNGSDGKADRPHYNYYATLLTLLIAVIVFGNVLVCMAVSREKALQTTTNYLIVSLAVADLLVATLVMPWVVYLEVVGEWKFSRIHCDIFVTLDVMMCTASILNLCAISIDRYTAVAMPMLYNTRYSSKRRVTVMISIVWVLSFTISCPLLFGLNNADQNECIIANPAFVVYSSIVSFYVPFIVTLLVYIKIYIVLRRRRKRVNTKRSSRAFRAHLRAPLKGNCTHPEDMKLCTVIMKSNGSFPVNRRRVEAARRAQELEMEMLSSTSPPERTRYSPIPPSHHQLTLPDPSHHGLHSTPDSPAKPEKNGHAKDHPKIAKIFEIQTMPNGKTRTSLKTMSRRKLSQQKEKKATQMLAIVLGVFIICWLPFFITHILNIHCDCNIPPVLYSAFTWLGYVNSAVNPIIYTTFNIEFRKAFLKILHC
T2 sequence (P35462 whole entry): as the sequence (P35462 whole entry) above

`CCCN(CCC)CCc1cccc2c1CC(=O)N2` [Ropinirole] was tested, and the EC50 [1] was 20 nM, the “agonist behaviour at D2 receptor” value [1] was “full agonists” and the “agonist behaviour (partial / full)” value ([2]; mitogenesis) was “full agonists”.
For `COCCC(=O)N[C@H]1CC[C@H](CCN2CCN(c3cccc(C#N)c3)CC2)CC1` [BP1.4979, N-(4-{2-[4-(3-Cyanophenyl)piperazin-1-yl]ethyl}cyclohexyl)-3-methoxypropanamide], the “activity at 160 other receptors, channels or enzymes” value [3] was “inactive”, the “inhibition of the synaptic transmission” value ([4]; 30 nM, stimulation 40 V, 50 μs of the dorsal root) was “inhibited fully” and the “amplitude of the post-synaptic response on the ventral root” value ([4]; another series of experiments, supraliminar stimulation of the dorsal root) was “dose dependently inhibited”. For the same compound, the “effect on post-synaptic response in the presence of the dopamine D3 antagonist BP1.4096” value ([4]; in the presence of BP1.4096) was “prevented”, the “behaviour at the human D2 receptor” value [5] was “pure antagonist” and the weight increase ([6]; 3 mg once a day) was 0.9 kg. For the same compound, the “weight increase compared to the weight before treatment” value ([6]; 3 mg once a day) was 2.0 kg, the weight increase ([6]; 10 mg once a day) was 0.5 kg and the “weight increase compared to the weight before treatment” value ([6]; 10 mg once a day) was 1.4 kg. For the same compound, the weight increase ([6]; 15 mg once a day) was 0.0 kg, the “weight increase compared to the weight before treatment” value ([6]; 15 mg once a day) was 0.2 kg and the partial activity [7] was less than 5%. The “nausea and vomiting side-effects” value [8] was “no patient reported any symptom related to nausea nor did had vomiting episodes”, the “blockade of the effect of dopamine or agonists” value ([1]; antagonist mode) was “block completely” and the “agonist behaviour at D2 receptor” value [1] was “failed to activate the receptor”. For the same compound, the Emax ([2]; CHO, read-out: intrinsic activity) was 30%, the EC50 ([2]; mitogenesis, CHO cells expressing human D3 receptor) was 0.7 nM and the “agonist behaviour (partial / full)” value ([2]; mitogenesis) was “partial agonist”.
`CCCN(CCc1cccs1)[C@H]1CCc2c(O)cccc2C1` [Rotigotine] was tested, and the EC50 [1] was 0.3 nM and the “agonist behaviour at D2 receptor” value [1] was “full agonists”.
For `CCCN(CCC)C1CCc2ccc(O)cc2C1` (stereo not shown) [7-OHDPAT, reference compound], the “inhibition of the monosynaptic reflex” value [4] was “total or nearly total inhibition”.
For `NCCc1ccc(O)c(O)c1` [Dopamine, dopamine, reference compound], the “inhibition of the monosynaptic reflex” value [4] was “total or nearly total inhibition”.
